According to ChEMBL document CHEMBL6109077, “Design, synthesis and in vitro validation of bivalent binders of SARS-CoV-2 spike protein: Obeticholic, betulinic and glycyrrhetinic acids as building blocks” (Bioorg Med Chem, 2025):
Activity calls are given as the source filed them. The rule behind the calls is not given here.

Legend:
293T/ACE2 [1] = experiment: Inhibition of spike protein D614G mutant in pseudotyped SARS-CoV-2 infected in 293T/ACE2 cells assessed as reduction in viral entry at 10 uM preincubated with virus for 1 hr followed by cell infection and measured after 48 hrs by bright-glo luciferase reporter gene assay; format: cell-based; settings: Severe acute respiratory syndrome coronavirus 2, time 49.0 hrs
293T/ACE2 [2] = experiment: Inhibition of spike protein Omicron BA.2 mutant in pseudotyped SARS-CoV-2 infected in 293T/ACE2 cells assessed as reduction in viral entry at 10 uM preincubated with virus for 1 hr followed by cell infection and measured after 48 hrs by bright-glo luciferase reporter gene assay; format: cell-based; settings: Severe acute respiratory syndrome coronavirus 2, time 49.0 hrs

With `C=C(C)[C@@H]1CC[C@]2(C(=O)OC)CC[C@@]3(C)[C@@H]4CC[C@@H]5[C@H](CC[C@H](OC(=O)CCCCc6cn(CCCCCCNC(=O)CC[C@@H](C)[C@H]7CC[C@H]8[C@@H]9[C@H](O)[C@H](CC)[C@@H]%10C[C@H](O)CC[C@]%10(C)[C@H]9CC[C@]78C)nn6)C5(C)C)[C@H]4CC[C@@H]3[C@@H]12` the inhibition (293T/ACE2 [1]) was “inactive” and the inhibition (293T/ACE2 [2]) was “Active; Significant Effect Observed”.
With `C=C(C)[C@@H]1CC[C@]2(C(=O)O)CC[C@]3(C)[C@H](CC[C@@H]4[C@@]5(C)CC[C@H](O)C(C)(C)[C@@H]5CC[C@]43C)[C@@H]12` the inhibition (293T/ACE2 [1]) was “Not active; No Statistically Significant Decrease Observed” and the inhibition (293T/ACE2 [2]) was “Not active; No Statistically Significant Decrease Observed”.
With `C=C(C)[C@@H]1CC[C@]2(C(=O)OC)CC[C@]3(C)[C@H](CC[C@@H]4[C@@]5(C)CC[C@H](OC(=O)CCCCCCCCNC(=O)CC[C@@H](C)[C@H]6CC[C@H]7[C@@H]8[C@H](O)[C@H](CC)[C@@H]9C[C@H](O)CC[C@]9(C)[C@H]8CC[C@]67C)C(C)(C)[C@@H]5CC[C@]43C)[C@@H]12` the inhibition (293T/ACE2 [1]) was “Active; Statistically Significant Effect Observed” and the inhibition (293T/ACE2 [2]) was “Active; Statistically Significant Effect Observed”.
In the case of `C=C(C)[C@@H]1CC[C@]2(C(=O)OC)CC[C@]3(C)[C@H](CC[C@@H]4[C@@]5(C)CC[C@H](OC(=O)CCCNC(=O)CC[C@@H](C)[C@H]6CC[C@H]7[C@@H]8[C@H](O)[C@H](CC)[C@@H]9C[C@H](O)CC[C@]9(C)[C@H]8CC[C@]67C)C(C)(C)[C@@H]5CC[C@]43C)[C@@H]12`, the inhibition (293T/ACE2 [1]) is reported as “Active; Statistically Significant Effect Observed” and the inhibition (293T/ACE2 [2]) is reported as “Active; Statistically Significant Effect Observed”.
In the case of `CC[C@H]1[C@@H](O)[C@@H]2[C@H](CC[C@]3(C)[C@@H]([C@H](C)CCC(=O)O)CC[C@@H]23)[C@@]2(C)CC[C@@H](O)C[C@@H]12`, the inhibition (293T/ACE2 [1]) is reported as “Not active; No Statistically Significant Decrease Observed” and the inhibition (293T/ACE2 [2]) is reported as “Not active; No Statistically Significant Decrease Observed”.
`CC[C@H]1[C@@H](O)[C@@H]2[C@H](CC[C@]3(C)[C@@H]([C@H](C)CCC(=O)NCCCCCCn4cc(CCCCC(=O)O[C@H]5CC[C@H]6[C@@H](CC[C@]7(C)[C@@H]6C(=O)C=C6[C@@H]8C[C@@](C)(C(=O)OC)CC[C@]8(C)CC[C@]67C)C5(C)C)nn4)CC[C@@H]23)[C@@]2(C)CC[C@@H](O)C[C@@H]12` was tested, and the inhibition (293T/ACE2 [1]) was “inactive” and the inhibition (293T/ACE2 [2]) was “inactive”.
`CC1(C)[C@@H](O)CC[C@]2(C)[C@H]3C(=O)C=C4[C@@H]5C[C@@](C)(C(=O)O)CC[C@]5(C)CC[C@@]4(C)[C@]3(C)CC[C@@H]12` was tested, and the inhibition (293T/ACE2 [1]) was “Not active; No Statistically Significant Decrease Observed” and the inhibition (293T/ACE2 [2]) was “Not active; No Statistically Significant Decrease Observed”.
